Assay results taken from the supplement of paper PMC4862054.

Key:
Settings in all cases: incubation time: 72 h
BT-474 [1] = assay: normalised response (% of control), CellTiter-Glo; higher = more viable cells (100 = DMSO, 0 = benzethonium chloride kill control)
Summary of the method: (§1)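 Breast cancer cell lines were exposed for 72 h in 384-well plates to compound at 5 concentrations, 10-fold apart, covering a 10,000-fold range fixed for each compound. Plates were read for CellTox Green fluorescence and CellTiter-Glo luminescence and normalised to 0.1 % DMSO (100) and a positive kill control (0). Each value is the normalised signal at one concentration of the series.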

SK-BR-3 [2] = assay: as above
Summary of the method: as §1

HDQ-P1 [3] = assay: as above
Summary of the method: as §1

MCF-10A = assay: as above
Summary of the method: as §1

CAL-85-1 [4] = assay: as above
Summary of the method: as §1

MFM-223 [5] = assay: as above
Summary of the method: as §1

MDA-MB-231 [6] = assay: as above
Summary of the method: as §1

MDA-MB-468 [7] = assay: as above
Summary of the method: as §1

HCC1143 [8] = assay: as above
Summary of the method: as §1

DU-4475 [9] = assay: as above
Summary of the method: as §1

CAL-51 [10] = assay: as above
Summary of the method: as §1

HCC1599 [11] = assay: as above
Summary of the method: as §1

CAL-120 [12] = assay: as above
Summary of the method: as §1

MDA-MB-453 [13] = assay: as above
Summary of the method: as §1

CAL-148 [14] = assay: as above
Summary of the method: as §1

MDA-MB-436 [15] = assay: as above
Summary of the method: as §1

BT-549 [16] = assay: as above
Summary of the method: as §1

HCC1937 [17] = assay: as above
Summary of the method: as §1

Hs578T [18] = assay: as above
Summary of the method: as §1

BT-474 [19] = assay: normalised viability (% of control), CellTiter-Blue; higher = more viable cells (100 = DMSO, 0 = benzethonium chloride kill control)
Summary of the method: (§2)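 The reported figure is normalised viability at a single listed concentration of the series. Breast cancer cell lines (20 µl suspension) went onto 384-well plates holding compound in 5 µl medium for 72 h. CellTiter-Blue (2.5 µl, 2 h, 37 °C) was read by fluorescence at 560/590 nm, and each plate was scaled to vehicle at 100 and a positive kill control at 0.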

SK-BR-3 [20] = assay: as above
Summary of the method: as §2

HDQ-P1 [21] = assay: as above
Summary of the method: as §2

CAL-85-1 [22] = assay: as above
Summary of the method: as §2

MFM-223 [23] = assay: as above
Summary of the method: as §2

MDA-MB-231 [24] = assay: as above
Summary of the method: as §2

MDA-MB-468 [25] = assay: as above
Summary of the method: as §2

HCC1143 [26] = assay: as above
Summary of the method: as §2

DU-4475 [27] = assay: as above
Summary of the method: as §2

CAL-51 [28] = assay: as above
Summary of the method: as §2

HCC1599 [29] = assay: as above
Summary of the method: as §2

CAL-120 [30] = assay: as above
Summary of the method: as §2

MDA-MB-453 [31] = assay: as above
Summary of the method: as §2

CAL-148 [32] = assay: as above
Summary of the method: as §2

MDA-MB-436 [33] = assay: as above
Summary of the method: as §2

BT-549 [34] = assay: as above
Summary of the method: as §2

HCC1937 [35] = assay: as above
Summary of the method: as §2

Hs578T [36] = assay: as above
Summary of the method: as §2

SMILES | normalised response (BT-474 [1]) | normalised response (SK-BR-3 [2]) | normalised response (HDQ-P1 [3]) | normalised response (MCF-10A) | normalised response (CAL-85-1 [4]) | normalised response (MFM-223 [5]) | normalised response (MDA-MB-231 [6]) | normalised response (MDA-MB-468 [7]) | normalised response (HCC1143 [8]) | normalised response (DU-4475 [9]) | normalised response (CAL-51 [10]) | normalised response (HCC1599 [11]) | normalised response (CAL-120 [12]) | normalised response (MDA-MB-453 [13]) | normalised response (CAL-148 [14]) | normalised response (MDA-MB-436 [15]) | normalised response (BT-549 [16]) | normalised response (HCC1937 [17]) | normalised response (Hs578T [18]) | normalised viability (BT-474 [19]) | normalised viability (SK-BR-3 [20]) | normalised viability (HDQ-P1 [21]) | normalised viability (CAL-85-1 [22]) | normalised viability (MFM-223 [23]) | normalised viability (MDA-MB-231 [24]) | normalised viability (MDA-MB-468 [25]) | normalised viability (HCC1143 [26]) | normalised viability (DU-4475 [27]) | normalised viability (CAL-51 [28]) | normalised viability (HCC1599 [29]) | normalised viability (CAL-120 [30]) | normalised viability (MDA-MB-453 [31]) | normalised viability (CAL-148 [32]) | normalised viability (MDA-MB-436 [33]) | normalised viability (BT-549 [34]) | normalised viability (HCC1937 [35]) | normalised viability (Hs578T [36])
C[C@@H](C(=O)O)c1ccc(-c2ccccc2)c(F)c1 [Tarenflurbil] (1 nM) | 93.8% | 84.6% | 96.8% | 85.5% | 91.3% | 93.5% | 98.1% | 97.1% | 94.2% | 95.6% | 83.3% | 113% | 98.1% | 103% | 98.8% | 102% | 103% | 92.7% | 99.1% | 114% | 87.9% | 85.4% | 92.7% | 97.5% | 88.8% | 107% | 108% | 111% | 110% | 128% | 93.7% | 107% | 97.1% | 103% | 99.2% | 108% | 101%
Cn1nnc2c(C(N)=O)ncn2c1=O [Temozolomide] (1 nM) | 95.4% | 98.3% | 96.3% | 104% | 97.5% | 94.9% | 94.8% | 100% | 95% | 97.5% | 92.3% | 90% | 99.5% | 97.6% | 96.2% | 92.3% | 104% | 99.3% | 99.8% | 86.8% | 126% | 96.6% | 103% | 102% | 93% | 96% | 118% | 128% | 95.5% | 109% | 107% | 98.1% | 103% | 95.7% | 100% | 113% | 102%
CC[C@@H]1C(=O)N(C)c2cnc(Nc3ccc(C(=O)N[C@H]4CC[C@H](N5CCN(CC6CC6)CC5)CC4)cc3OC)nc2N1C(C)C [Volasertib] (0.1 nM) | 97.7% | 103% | 93.2% | 88.1% | 102% | 96.2% | 100% | 97.3% | 90.6% | 95.2% | 111% | 96.6% | 98.5% | 108% | 93% | 80.4% | 104% | 98.9% | 105% | 107% | 118% | 94.3% | 88.4% | 92% | 110% | 121% | 96.3% | 103% | 116% | 88.5% | 92.4% | 101% | 110% | 117% | 108% | 101% | 102%
